# Patent US10626095B2, “Cyanotriazole compounds” (OTSUKA PHARMACEUTICAL CO., LTD., priority 2013, dated 2020)
# Tested on: NaCT-CHO (CHO cells stably expressing human NaCT)
# Assay: Assay of the citric acid cycle activation ([1,5-14C]-citric acid, diffusion of [14C]-CO2)
# Type: cell-based
# Details: 1 hour incubation at 37° C. with [1,5-14C]-citric acid
# Description: Assay of the Citric Acid Cycle Activation
# (1) Construction of the Human NaCT Expression Vector pME-NaCT
# The human NaCT (also called SLC13A5 or NAC2; GenBank accession No. NM_177550) cDNA was inserted into the EcoRI-NotI site of the mammalian expression vector pME18S (GenBank accession No. AB009864) and purified by Qiagen Plasmid Maxi Kit (Qiagen).
# (2) Establishment of NaCT Stably Expressed CHO Cells
# The pME-NaCT vector and the pcDNA™3.1 vector containing the neomycin resistance gene (Life Technologies) were co-transfected into CHO-K1 cells (ATCC) by Lipofectaimine 2000 reagent (Life Technologies). The next day the cells were subcultured in Nutrient Mixture F-12 Ham (Sigma-Aldrich) with 10% FBS (Biological Industries), and Geneticin (Life Technologies) was added (final concentration 350 μg/mL) in the following day. CHO cell clones stably expressing NaCT were given by neomycin resistant cell screening and limiting dilution method. Established cell lines (named NaCT-CHO) were also maintained in culture medium (Nutrient Mixture F-12 Ham) with 10% FBS and 350 μg/mL Geneticin. For control cells (named pME-CHO) preparation, the naive pME18S were also transfected instead of pME-NaCT into CHO-K1 cells.
# (3) Assay of the Citric Acid Cycle Activation
# NaCT-CHO and pME-CHO were plated at 20,000 cells/well into white CulturPlate™-96 (PerkinElmer) two days before the assay. Prior to assay incubation, the cultured plates were washed twice with washing buffer, 10 mM HEPES-Tris(pH7.4) containing 140 mM choline chloride, 2 mM KCl, 1 mM CaCl2, 1 mM MgCl2. The compounds to be tested were dissolved and diluted in DMSO (Wako Pure Chemical industries) to 1,000 times of a final concentration, and further diluted to two times as high as the final concentration in assay buffer, 10 mM HEPES-Tris(pH7.4) containing 140 mM NaCl, 2 mM KCl, 1 mM CaCl2, 1 mM MgCl2. The range of final concentrations was properly determined based on the test compounds activity. Each 25 μL compound solution was added to well and subsequently 25 μL radio-labeled substrate solution containing 0.4 mM (0.4 MBq/mL) [1,5-^14C]-citric acid (PerkinElmer) in the assay buffer was added. After 1 hour incubation at 37° C., the reaction mixture was discarded and washed three times with pre-chilled washing buffer and then 0.1 mL MicroScint 20 (PerkinElmer) was added to well. The plate was sealed with TopSeal-A (PerkinElmer) and the radioactivity was measured using a TopCount (PerkinElmer). Non-specific activity (NS cpm) and total radio activity (Total cpm) were determined by counting of pME-CHO plated wells and NaCT-CHO plated wells without compounds, respectively. Diffusion of [^14C]—CO2 was able to be estimated from residual radioactivity (R cpm) by an equation (Total−R)/(Total−NS)×100(%). The difference of Total and R was disappeared in the presence of 0.1 μM antimycin A. EC50 values were calculated by regression analysis using SAS Statistical Analysis System (SAS institute Japan Ltd. Release 9.1).
row,SMILES,EC50 [µM]
1,"CCN(c1cccc(C(F)(F)F)c1)c1nc(-c2nn[nH]c2C#N)cs1 [Example 84, 5-{2-[N-ethyl-N-(3-trifluoromethyl-phenyl)-amino]-thiazol-4-yl}-3H-[1,2,3]triazole-4-carbonitrile]",1.5
2,"N#Cc1[nH]nnc1-c1csc(Oc2cccc(C(F)(F)F)c2)n1 [Example 85, 5-[2-(3-trifluoromethyl-phenoxy)-thiazol-4-yl]-3H-[1,2,3]triazole-4-carbonitrile]",0.69
3,"N#Cc1[nH]nnc1-c1csc(Sc2ccc(Cl)cc2)n1 [Example 86, 5-[2-(4-chloro-phenylsulfanyl)-thiazol-4-yl]-3H-[1,2,3]triazole-4-carbonitrile]",0.67
4,"CCCCCCc1nc(-c2nn[nH]c2C#N)cs1 [Example 87, 5-(2-hexyl-thiazol-4-yl)-3H-[1,2,3]triazole-4-carbonitrile]",0.9
5,"N#Cc1[nH]nnc1-c1csc(C23CC4CC(CC(C4)C2)C3)n1 [Example 88, 5-(2-(adamantan-1-yl)-thiazol-4-yl)-3H-[1,2,3]triazole-4-carbonitrile]",0.62
6,"Cc1sc(-c2ccc(Cl)cc2)nc1-c1nn[nH]c1C#N [Example 89, 5-[2-(4-chloro-phenyl)-5-methyl-thiazol-4-yl]-3H-[1,2,3]triazole-4-carbonitrile]",0.76
7,"Cc1sc(-c2cccc(C(F)(F)F)c2)nc1-c1nn[nH]c1C#N [Example 91, 5-[5-methyl-2-(3-trifluoromethyl-phenyl)-thiazol-4-yl]-3H-[1,2,3]triazole-4-carbonitrile]",0.7
8,"Cc1sc(-c2ccc(C(F)(F)F)cn2)nc1-c1nn[nH]c1C#N [Example 93, 5-[5-methyl-2-(5-trifluoromethyl-pyridin-2-yl)-thiazol-4-yl]-3H-[1,2,3]triazole-4-carbonitrile]",0.58
9,"Cc1sc(-c2cccc(C(F)(F)F)n2)nc1-c1nn[nH]c1C#N [Example 94, 5-[5-methyl-2-(6-trifluoromethyl-pyridin-2-yl)-thiazol-4-yl]-3H-[1,2,3]triazole-4-carbonitrile]",0.79
10,"Cc1sc(-c2ccc(Cl)cn2)nc1-c1nn[nH]c1C#N [Example 95, 5-[2-(5-chloro-pyridin-2-yl)-5-methyl-thiazol-4-yl]-3H-[1,2,3]triazole-4-carbonitrile]",0.74
11,"Cc1sc(Oc2ccc(OC(F)(F)F)cc2)nc1-c1nn[nH]c1C#N [Example 96, 5-[5-methyl-2-(4-trifluoromethoxy-phenoxy)-thiazol-4-yl]-3H-[1,2,3]triazole-4-carbonitrile]",0.67
12,"Cc1sc(Sc2cccc(C(F)(F)F)c2)nc1-c1nn[nH]c1C#N [Example 97, 5-[5-methyl-2-(3-trifluoromethyl-phenylsulfanyl)-thiazol-4-yl]-3H-[1,2,3]triazole-4-carbonitrile]",0.5
13,"CCc1sc(-c2cccc(C(F)(F)F)c2)nc1-c1nn[nH]c1C#N [Example 99, 5-[5-ethyl-2-(3-trifluoromethyl-phenyl)-thiazol-4-yl]-3H-[1,2,3]triazole-4-carbonitrile]",0.54
14,"CCc1sc(-c2ccc(C(F)(F)F)nc2)nc1-c1nn[nH]c1C#N [Example 101, 5-[5-ethyl-2-(6-trifluoromethyl-pyridin-3-yl)-thiazol-4-yl]-3H-[1,2,3]triazole-4-carbonitrile]",0.85
15,CCc1sc(Oc2ccc(Cl)cc2)nc1-c1nn[nH]c1C#N [Example 102],0.36
16,"CCCc1sc(-c2ccc(Cl)cc2)nc1-c1nn[nH]c1C#N [Example 103, 5-[2-(4-chloro-phenyl)-5-propyl-thiazol-4-yl]-3H-[1,2,3]triazole-4-carbonitrile]",0.23
17,"CCCc1sc(-c2cccc(C(F)(F)F)c2)nc1-c1nn[nH]c1C#N [Example 104, 5-[5-propyl-2-(3-trifluoromethyl-phenyl)-thiazol-4-yl]-3H-[1,2,3]triazole-4-carbonitrile]",0.7

row,SMILES,EC50 [µM]
1,"N#Cc1[nH]nnc1-c1nc(-c2ccc(Cl)cc2)sc1C1CC1 [Example 105, 5-[2-(4-chloro-phenyl)-5-cyclopropyl-thiazol-4-yl]-3H-[1,2,3]triazole-4-carbonitrile]",1.91
2,"CC(C)Cc1sc(-c2ccc(Cl)cc2)nc1-c1nn[nH]c1C#N [Example 106, 5-[2-(4-chloro-phenyl)-5-isobutyl-thiazol-4-yl]-3H-[1,2,3]triazole-4-carbonitrile]",0.84
3,"N#Cc1[nH]nnc1-c1nc(-c2ccc(Cl)cc2)sc1-c1ccc(C(F)(F)F)cc1 [Example 107, 5-[2-(4-chloro-phenyl)-5-(4-trifluoromethyl-phenyl)-thiazol-4-yl]-3H-[1,2,3]triazole-4-carbonitrile]",2.56
4,"N#Cc1[nH]nnc1-c1nc(Oc2ccc(OC(F)(F)F)cc2)sc1Cl [Example 109, 5-[5-chloro-2-(4-trifluoromethoxy-phenoxy)-thiazol-4-yl]-3H-[1,2,3]triazole-4-carbonitrile]",0.67
5,"COc1sc(-c2ccc(Cl)cc2)nc1-c1nn[nH]c1C#N [Example 110, 5-[2-(4-chloro-phenyl)-5-methoxy-thiazol-4-yl]-3H-[1,2,3]triazole-4-carbonitrile]",3.23
6,"N#Cc1[nH]nnc1-c1cnc(-c2cccc(C(F)(F)F)c2)s1 [Example 111, 5-[2-(3-trifluoromethyl-phenyl)-thiazol-5-yl]-3H-[1,2,3]triazole-4-carbonitrile]",0.75
7,"N#Cc1[nH]nnc1-c1cnc(/C=C/c2cccc(C(F)(F)F)c2)s1 [Example 112, 5-{2-[(E)-2-(3-trifluoromethyl-phenyl)-vinyl]-thiazol-5-yl}-3H-[1,2,3]triazole-4-carbonitrile]",0.79
8,"Cc1nc(-c2ccc(Cl)cc2)sc1-c1nn[nH]c1C#N [Example 113, 5-[2-(4-chloro-phenyl)-4-methyl-thiazol-5-yl]-3H-[1,2,3]triazole-4-carbonitrile]",0.79
9,"Cc1nc(-c2cccc(C(F)(F)F)c2)sc1-c1nn[nH]c1C#N [Example 114, 5-[4-methyl-2-(3-trifluoromethyl-phenyl)-thiazol-5-yl]-3H-[1,2,3]triazole-4-carbonitrile]",0.45
10,"CCc1nc(-c2ccc(Cl)cc2)sc1-c1[nH]nnc1C#N [Example 115, 5-[2-(4-chloro-phenyl)-4-ethyl-thiazol-5-yl]-1H-[1,2,3]triazole-4-carbonitrile]",0.65
11,"N#Cc1[nH]nnc1-c1sc(-c2ccc(F)c(Cl)c2)nc1C(F)(F)F [Example 116, 5-[2-(3-chloro-4-fluoro-phenyl)-4-trifluoromethyl-thiazol-5-yl]-3H-[1,2,3]triazole-4-carbonitrile]",4.13
12,"N#Cc1[nH]nnc1-c1coc(-c2ccc(OC(F)(F)F)cc2)n1 [Example 117, 5-[2-(4-trifluoromethoxy-phenyl)-oxazol-4-yl]-3H-[1,2,3]triazole-4-carbonitrile]",1.59
13,"CCCc1oc(-c2ccc(Cl)cc2)nc1-c1nn[nH]c1C#N [Example 119, 5-[2-(4-chloro-phenyl)-5-propyl-oxazol-4-yl]-3H-[1,2,3]triazole-4-carbonitrile]",0.71
14,"N#Cc1[nH]nnc1-c1nc(-c2cccc(Cl)c2)oc1C1CC1 [Example 121, 5-[2-(3-chloro-phenyl)-5-cyclopropyl-oxazol-4-yl]-3H-[1,2,3]triazole-4-carbonitrile]",0.99
15,"CC(C)c1oc(-c2ccc(F)cc2)nc1-c1nn[nH]c1C#N [Example 123, 5-[2-(4-fluoro-phenyl)-5-isopropyl-oxazol-4-yl]-3H-[1,2,3]triazole-4-carbonitrile]",0.68
16,"CC(C)c1oc(-c2ccc(OC(F)(F)F)cc2)nc1-c1nn[nH]c1C#N [Example 124, 5-[5-isopropyl-2-(4-trifluoromethoxy-phenyl)-oxazol-4-yl]-3H-[1,2,3]triazole-4-carbonitrile]",0.92
17,"CC(C)Cc1oc(-c2ccc(F)c(F)c2)nc1-c1nn[nH]c1C#N [Example 125, 5-[2-(3,4-difluoro-phenyl)-5-isobutyl-oxazol-4-yl]-3H-[1,2,3]triazole-4-carbonitrile]",0.54
